# According to patent US20070116743A1, “Dietary supplement enhancing the muscular energy metabolism, comprising an alkanoyl carnitine and ribose” (Sigma-Tau Industrie Farmaceutiche Riunite S.p.A., priority 2000, published 2007):
# Columns and labels:
# [1] = tested on: papillary muscle of rabbit heart; assay: Test of ATP concentrations in papillary muscle of heart subjected to anoxia; type: in vivo, New Zealand rabbits; conditions: summary of Table 1
# From the text: Test of ATP Concentrations in Heart Subjected to Anoxia In this test the technique adopted was the one using papillary muscle of rabbit heart perfused and subjected to anoxia which, as is known, leads to an impoverishment of its ATP energy reserves. […] At the end of the third day of treatment, all the animals were sacrificed and their hearts excised. Sections of papillary muscle measuring 1 mm in diameter and 4-5 mm in thickness were isolated from the excised hearts. The isolated papillary muscle was perfused in a thermostatic bath with a saturated 100% O2 solution. The anoxic state was obtained by introducing 100% N2 instead of O2 into the bath. For the measurement of the ATP concentrations in the […] muscle the method described by […] was adopted ([…]. Methods in Enzymology 111 N.Y. Acad. Press., 879, 1957).
# [2] = tested on: ventricular arrhythmias induced by left coronary ligation in the rat; assay: Experimental myocardial anoxia test: ventricular arrhythmias induced by left coronary ligation; type: in vivo; conditions: for N. of ectopic contractions during 30 minutes after ligation / Start of arrhythmias after: rat, left coronary ligation, slow injection into left ventricle 15 minutes before ligation (100 mg/kg each agent; carnitine combination 25 mg/kg per component); for Reduction in number of ectopic contractions compared to controls (in words): summary of Table 2
# From the text: Experimental Myocardial Anoxia Test
# Adopting the technique described by Selych (Selych et al., Angiology, 11, 398, 1960) and modified by Clark (Clark C., J. Pharmacol. Methods, 3, 357, 1980), these tests were used to evaluate the protective activity of isovaleryl L-carnitine, propionyl L-carnitine, carnitine combination, ribose and various combinations of the same against ventricular arrhythmias induced by left coronary ligation in the rat.
# Coronary occlusion and the resulting myocardial anoxia lead, after 5-8 minutes, to the onset of arrhythmias. In these tests, ventricular ectopic contractions were counted for a period of 30 minutes after ligation both in control rats and in rats that had received slow injections into the left ventricle, 15 minutes before ligation, of a solution containing isovaleryl L-carnitine alone (100 mg/kg), propionyl L-carnitine alone (100 mg/kg), or carnitine combination alone consisting of propionyl L-carnitne (25 mg/kg), acetyl L-carnitine (25 mg/kg) and isovaleryl L-carnitine (25 mg/kg) or ribose alone (100 mg/kg), or a combination of ribose plus isovaleryl L-carnitine or propionyl L-carnitine or a combination of ribose plus carnitine combination at the doses described above.
SMILES,Protection of ATP in papillary muscle against anoxia (in words) [1],N. of ectopic contractions during 30 minutes after ligation [2],Start of arrhythmias after [2] [min],Reduction in number of ectopic contractions compared to controls (in words) [2]
O=C[C@H](O)[C@H](O)[C@H](O)CO [Ribose],partly protecting,855 ± 110,5 to 7,only slight reductions
CC(C)CC(=O)O[C@H](CC(=O)[O-])C[N+](C)(C)C [Isovaleryl L-carnitine],partly protecting,860 ± 75,5 to 7,only slight reductions
CCC(=O)O[C@H](CC(=O)[O-])C[N+](C)(C)C [Propionyl L-carnitine],partly protecting,830 ± 86,5 to 8,only slight reductions
